{
  "source": "patent US5270165A",
  "about": "“Method of diagnosis of amyloidoses” (The Reagents of the University of California, priority 1991, dated 1993)",
  "tested_on": "platelets",
  "assay": "Secretion of PN-2/βAPP and granule markers from platelets after activation by agonists",
  "type": "cell-based",
  "details": "for PN-2/βAPP percent secreted / LDH loss (percent), marker of platelet lysis / ADP/ATP percent secreted / LA-PF4 percent secreted: collagen 20 μg/ml or thrombin 1 U/ml, 10 minutes; for fraction of total platelet PN-2/βAPP secreted on activation: freshly washed platelets",
  "procedure": "Secretion of PN-2/βAPP from platelets after activation by the agonists collagen or thrombin was studied. Briefly, fresh platelets washed by albumin density gradient centrifugation and gel filtration were incubated for 30 minutes at 37° C. in the absence or presence of the combined metabolic inhibitors antimycin A (15 μg/ml), 2-deoxy-D-glucose (30 mM), and D-gluconic acid δ-lactone (10 mM). The platelets were then placed into a cuvette 37° C. water bath with stirring at 1,200 rpm, and collagen (20 μg/ml or .varies.-thrombin (1 U/ml) was added. After 10 minutes, the samples were centrifuged at 12,000 x g for 4 minutes and supernatants were collected. Aliquots were removed and quantitated for PN-2/βAPP by incubation with ^125 I-EGF BP and analysis of complex formation by SDS-PAGE and autoradiography as in Example 15. Autoradiograms were aligned with dried gels; ^125 I-EGF BP:PN-2/βAPP complexes were located, excised and quantitated in a […]. Aliquots were also quantitated for platelet markers as follows: total adenine nucleotide (ADP/ATP) secretion was measured by the method of Homsen et al., Anal. Biochem., 46:489 (1972); low affinity platelet factor 4 (LA-PF4) secretion was quantitated by the method of Rucinski et al., Blood, 53:47 (1979); and cytosolic lactate dehydrogenase (LDH) loss was assessed by the procedure of Wroblewski and Ladue, Proc. Soc. Exper. Biol. Med., 77:389 (1978), the disclosures of which are hereby incorporated by reference. Values represent the percent secreted. Percent secreted was determined from the ratio of releasate in agonist treated sample to the total amount present in detergent lysate; nonstimulated platelet supernatants were subtracted from both. Values expressed are the mean ±SEM of three experiments, each consisting of combined platelets from two donors.",
  "key": {"[1]": {"details": "Inhibitor-Treated Platelets (antimycin A, 2-deoxy-D-glucose, D-gluconic acid δ-lactone)"}, "[2]": {"details": "Inhibitor-Treated Platelets, mean ±SEM"}, "[3]": {"details": "Washed Platelets, 37° C., mean ±SEM of three experiments"}},
  "data": [
    {"substance": "Collagen", "values": [
      {"measurement": "PN-2/βAPP percent secreted", "setting": "[1]", "result": 0, "unit": "%"},
      {"measurement": "LDH loss (percent), marker of platelet lysis", "setting": "Inhibitor-Treated Platelets", "result": 0, "unit": "%"},
      {"measurement": "ADP/ATP percent secreted", "setting": "[2]", "result": "1.3 ± 1.3", "unit": "%"},
      {"measurement": "LA-PF4 percent secreted", "setting": "[2]", "result": 0, "unit": "%"},
      {"measurement": "PN-2/βAPP percent secreted", "setting": "[3]", "result": "46.3 ± 7.7", "unit": "%"},
      {"measurement": "ADP/ATP percent secreted", "setting": "Washed Platelets, mean ±SEM", "result": "45 ± 16", "unit": "%"},
      {"measurement": "LA-PF4 percent secreted", "setting": "Washed Platelets, mean ±SEM", "result": "52 ± 11", "unit": "%"},
      {"measurement": "LDH loss (percent), marker of platelet lysis", "setting": "Washed Platelets, mean ±SEM", "result": "1.3 ± 1.3", "unit": "%"},
      {"measurement": "fraction of total platelet PN-2/βAPP secreted on activation", "result": "approximately one-half"}
    ]},
    {"substance": "Thrombin", "values": [
      {"measurement": "PN-2/βAPP percent secreted", "setting": "[1]", "result": 0, "unit": "%"},
      {"measurement": "ADP/ATP percent secreted", "setting": "[2]", "result": 0, "unit": "%"},
      {"measurement": "LA-PF4 percent secreted", "setting": "[2]", "result": "0.4 ± 0.4", "unit": "%"},
      {"measurement": "PN-2/βAPP percent secreted", "setting": "[3]", "result": "53.7 ± 7.6", "unit": "%"},
      {"measurement": "ADP/ATP percent secreted", "setting": "Washed Platelets, mean ±SEM", "result": "68 ± 11", "unit": "%"},
      {"measurement": "LA-PF4 percent secreted", "setting": "Washed Platelets, mean ±SEM", "result": "69 ± 6.2", "unit": "%"},
      {"measurement": "LDH loss (percent), marker of platelet lysis", "setting": "Washed Platelets, mean ±SEM", "result": 0, "unit": "%"},
      {"measurement": "fraction of total platelet PN-2/βAPP secreted on activation", "result": "approximately one-half"}
    ]}
  ]
}
